Results as given in ChEMBL document CHEMBL1201862, “PubChem BioAssay data set” (2004).
Each block holds one compound with its values, some of them ahead of it. Activity calls are given as the source filed them.

Experiments:
[1] = molecular target: Peroxisome proliferator-activated receptor gamma/Nuclear receptor corepressor 2 (Homo sapiens, UniProt P37231+Q9Y618); format: functional
[2] = molecular target: T1, Sentrin-specific protease 8 (Homo sapiens, UniProt Q96LD8); assay: SENP8 protease inhibitors, SAR follow-up, biochemical, luminescence (AID 504501); format: functional
T1 sequence (Q96LD8 whole entry): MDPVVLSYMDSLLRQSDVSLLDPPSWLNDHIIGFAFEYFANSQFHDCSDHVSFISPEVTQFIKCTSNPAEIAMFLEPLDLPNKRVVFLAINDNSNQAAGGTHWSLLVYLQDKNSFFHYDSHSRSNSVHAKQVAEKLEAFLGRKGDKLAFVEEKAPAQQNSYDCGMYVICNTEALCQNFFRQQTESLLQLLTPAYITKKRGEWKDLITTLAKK

Caspase-3 = molecular target: T2, Caspase-3 (Homo sapiens, UniProt P42574); assay: Dose-response confirmation of uHTS inhibitor hits of Sentrin-Specific Protease 8 in a Caspase-3 Fluorescence assay.; format: functional
T2 sequence (P42574 whole entry): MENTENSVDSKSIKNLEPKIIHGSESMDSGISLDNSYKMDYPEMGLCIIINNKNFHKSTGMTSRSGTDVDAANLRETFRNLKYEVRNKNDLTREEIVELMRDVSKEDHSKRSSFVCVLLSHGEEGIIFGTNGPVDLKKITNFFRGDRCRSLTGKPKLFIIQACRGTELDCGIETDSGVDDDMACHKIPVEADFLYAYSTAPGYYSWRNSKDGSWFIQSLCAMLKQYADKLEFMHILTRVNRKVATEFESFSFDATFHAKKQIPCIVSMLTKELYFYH

Caspase-8 = Caspase-8 (Homo sapiens, UniProt Q14790); assay: caspase-8 inhibition counter-screen, dose response, selectivity assay for caspase-6 inhibitor project, biochemical, Z-IETD-R110 fluorescence, cherry-picked samples (AID 743294)
[3] = molecular target: T3, Sentrin-specific protease 7 (Homo sapiens, UniProt Q9BQF6); format: functional;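 further: Luminescence-based dose-response confirmation of ultra-high-throughput screening hits, measuring inhibition of SENP7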
T3 sequence (Q9BQF6 whole entry): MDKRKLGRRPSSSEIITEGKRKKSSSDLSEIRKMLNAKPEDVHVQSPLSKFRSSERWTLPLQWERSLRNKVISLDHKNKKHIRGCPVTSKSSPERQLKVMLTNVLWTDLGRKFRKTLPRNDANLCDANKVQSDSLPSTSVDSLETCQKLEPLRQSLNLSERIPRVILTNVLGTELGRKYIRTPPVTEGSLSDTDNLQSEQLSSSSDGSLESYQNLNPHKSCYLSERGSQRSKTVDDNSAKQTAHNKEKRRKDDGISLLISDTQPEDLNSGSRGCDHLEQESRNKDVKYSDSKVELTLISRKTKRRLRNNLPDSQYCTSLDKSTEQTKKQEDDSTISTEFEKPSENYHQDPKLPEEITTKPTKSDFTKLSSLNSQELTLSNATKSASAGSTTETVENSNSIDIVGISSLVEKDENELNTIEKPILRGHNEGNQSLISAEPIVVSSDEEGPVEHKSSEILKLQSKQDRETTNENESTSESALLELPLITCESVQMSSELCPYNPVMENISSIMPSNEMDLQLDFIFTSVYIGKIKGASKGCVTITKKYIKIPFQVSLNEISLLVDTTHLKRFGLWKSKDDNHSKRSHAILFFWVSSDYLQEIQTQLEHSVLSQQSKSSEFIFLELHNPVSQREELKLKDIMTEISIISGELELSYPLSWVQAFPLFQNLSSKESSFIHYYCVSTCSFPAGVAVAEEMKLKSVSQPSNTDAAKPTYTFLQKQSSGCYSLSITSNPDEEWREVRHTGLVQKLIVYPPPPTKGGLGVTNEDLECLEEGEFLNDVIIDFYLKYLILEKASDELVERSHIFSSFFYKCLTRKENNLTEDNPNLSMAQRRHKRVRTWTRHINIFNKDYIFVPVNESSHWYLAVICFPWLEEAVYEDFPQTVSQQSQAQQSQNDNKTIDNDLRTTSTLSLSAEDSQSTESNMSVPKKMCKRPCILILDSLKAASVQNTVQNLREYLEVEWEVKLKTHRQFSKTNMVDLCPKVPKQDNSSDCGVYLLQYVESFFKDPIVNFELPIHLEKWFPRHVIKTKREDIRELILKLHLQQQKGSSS

[4] = molecular target: Eukaryotic elongation factor 2 kinase (Homo sapiens, UniProt O00418); format: functional
[5] = molecular target: Serine/threonine-protein kinase PAK 1 (Homo sapiens, UniProt Q13153); format: functional
[6] = molecular target: Dual specificity tyrosine-phosphorylation-regulated kinase 1B (Homo sapiens, UniProt Q9Y463); assay: Navigating the Kinome. Panel member name: DYRK1B; format: functional
Dual specificity tyrosine-phosphorylation-regulated kinase 1B, sequence (Q9Y463 whole entry): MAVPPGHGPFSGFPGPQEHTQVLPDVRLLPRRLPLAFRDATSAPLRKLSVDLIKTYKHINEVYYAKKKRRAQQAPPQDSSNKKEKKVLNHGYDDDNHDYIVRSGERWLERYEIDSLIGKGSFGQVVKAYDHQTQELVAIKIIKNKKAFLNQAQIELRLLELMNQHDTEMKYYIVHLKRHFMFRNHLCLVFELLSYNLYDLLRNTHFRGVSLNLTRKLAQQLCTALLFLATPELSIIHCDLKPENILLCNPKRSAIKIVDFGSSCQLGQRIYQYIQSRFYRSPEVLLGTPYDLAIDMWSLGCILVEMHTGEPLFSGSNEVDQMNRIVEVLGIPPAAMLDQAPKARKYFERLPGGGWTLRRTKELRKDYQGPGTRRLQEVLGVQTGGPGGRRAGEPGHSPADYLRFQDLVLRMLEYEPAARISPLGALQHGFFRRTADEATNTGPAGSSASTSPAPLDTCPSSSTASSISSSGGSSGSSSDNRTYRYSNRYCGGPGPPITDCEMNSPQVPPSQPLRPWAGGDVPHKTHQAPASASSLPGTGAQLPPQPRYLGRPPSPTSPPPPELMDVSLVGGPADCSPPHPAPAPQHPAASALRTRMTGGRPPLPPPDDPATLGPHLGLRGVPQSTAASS

[7] = molecular target: Cyclin-dependent kinase 9 (Homo sapiens, UniProt P50750); format: functional;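 further: value from the CDK9 entry of a kinome-spanning kinase panel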
[8] = molecular target: Mitogen-activated protein kinase kinase kinase kinase 2 (Homo sapiens, UniProt Q12851); format: functional;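 further: measured as one member of a kinome-wide kinase panel, with MAP4K2 as the panel entry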
Mitogen-activated protein kinase kinase kinase kinase 2, sequence (Q12851 whole entry): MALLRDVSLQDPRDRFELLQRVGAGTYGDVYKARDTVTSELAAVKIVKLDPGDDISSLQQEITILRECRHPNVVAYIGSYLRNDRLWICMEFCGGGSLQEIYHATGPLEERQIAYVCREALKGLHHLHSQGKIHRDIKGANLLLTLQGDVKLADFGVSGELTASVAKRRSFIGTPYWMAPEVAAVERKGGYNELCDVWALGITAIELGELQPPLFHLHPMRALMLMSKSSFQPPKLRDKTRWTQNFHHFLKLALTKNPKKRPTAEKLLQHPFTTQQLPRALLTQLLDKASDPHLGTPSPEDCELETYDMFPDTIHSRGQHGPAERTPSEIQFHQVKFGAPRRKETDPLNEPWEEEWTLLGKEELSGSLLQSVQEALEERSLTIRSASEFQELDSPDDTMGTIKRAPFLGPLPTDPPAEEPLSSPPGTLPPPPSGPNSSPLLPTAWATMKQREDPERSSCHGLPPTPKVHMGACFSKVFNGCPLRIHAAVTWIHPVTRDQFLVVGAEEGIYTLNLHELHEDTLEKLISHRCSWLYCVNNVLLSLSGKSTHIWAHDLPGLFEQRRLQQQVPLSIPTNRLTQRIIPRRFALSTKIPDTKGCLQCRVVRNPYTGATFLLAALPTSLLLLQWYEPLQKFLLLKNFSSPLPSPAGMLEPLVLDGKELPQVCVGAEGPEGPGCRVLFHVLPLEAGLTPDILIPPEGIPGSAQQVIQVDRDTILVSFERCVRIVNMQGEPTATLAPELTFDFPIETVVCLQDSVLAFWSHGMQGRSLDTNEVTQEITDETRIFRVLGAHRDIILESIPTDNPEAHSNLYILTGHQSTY

[9] = molecular target: Serine/threonine-protein kinase PLK4 (Homo sapiens, UniProt O00444); format: functional;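 further: PLK4 measured as one member of a kinome-wide kinase profiling panel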
[10] = molecular target: Insulin-like growth factor 1 receptor (Homo sapiens, UniProt P08069); assay: Navigating the Kinome. Panel member name: IGF1R; format: functional
Insulin-like growth factor 1 receptor, sequence (P08069 31-736 limits assumed): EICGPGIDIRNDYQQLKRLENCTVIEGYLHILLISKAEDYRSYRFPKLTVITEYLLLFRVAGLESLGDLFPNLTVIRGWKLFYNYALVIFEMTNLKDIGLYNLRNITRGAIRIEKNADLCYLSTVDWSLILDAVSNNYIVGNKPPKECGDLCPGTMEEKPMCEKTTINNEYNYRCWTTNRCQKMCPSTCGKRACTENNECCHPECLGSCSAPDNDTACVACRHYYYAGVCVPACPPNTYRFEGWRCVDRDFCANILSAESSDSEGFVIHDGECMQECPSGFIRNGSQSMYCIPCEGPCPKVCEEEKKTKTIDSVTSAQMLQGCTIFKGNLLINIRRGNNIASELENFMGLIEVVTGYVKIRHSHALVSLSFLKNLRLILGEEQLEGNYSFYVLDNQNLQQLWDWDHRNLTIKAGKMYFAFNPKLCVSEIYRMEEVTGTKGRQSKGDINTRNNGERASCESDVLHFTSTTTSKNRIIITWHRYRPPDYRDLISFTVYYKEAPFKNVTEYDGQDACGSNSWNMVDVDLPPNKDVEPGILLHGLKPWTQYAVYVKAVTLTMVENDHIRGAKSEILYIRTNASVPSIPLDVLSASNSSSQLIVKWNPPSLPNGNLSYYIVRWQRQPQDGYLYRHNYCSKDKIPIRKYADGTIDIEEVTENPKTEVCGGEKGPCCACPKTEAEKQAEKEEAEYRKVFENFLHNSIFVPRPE
Insulin-like growth factor 1 receptor, sequence (P08069 741-1367 limits assumed): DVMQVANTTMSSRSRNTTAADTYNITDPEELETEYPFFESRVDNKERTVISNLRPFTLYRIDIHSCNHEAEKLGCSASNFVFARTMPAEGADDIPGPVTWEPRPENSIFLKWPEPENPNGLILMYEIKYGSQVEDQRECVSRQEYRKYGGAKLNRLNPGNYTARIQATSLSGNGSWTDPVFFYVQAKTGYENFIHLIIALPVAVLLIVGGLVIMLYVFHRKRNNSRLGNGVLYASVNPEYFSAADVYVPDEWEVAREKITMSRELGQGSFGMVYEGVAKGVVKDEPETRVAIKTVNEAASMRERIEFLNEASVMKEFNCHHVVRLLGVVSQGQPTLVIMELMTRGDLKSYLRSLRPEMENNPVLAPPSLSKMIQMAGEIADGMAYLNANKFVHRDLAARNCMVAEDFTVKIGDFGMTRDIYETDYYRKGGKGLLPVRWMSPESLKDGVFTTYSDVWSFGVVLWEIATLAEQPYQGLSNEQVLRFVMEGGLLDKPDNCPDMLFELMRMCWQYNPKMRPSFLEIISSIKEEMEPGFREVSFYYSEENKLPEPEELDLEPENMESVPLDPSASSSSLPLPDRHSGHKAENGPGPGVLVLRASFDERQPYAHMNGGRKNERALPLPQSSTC

[11] = molecular target: Protein kinase C iota type (Homo sapiens, UniProt P41743); format: functional;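 further: measured within a kinome-wide kinase panel, PRKCI as panel member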
Protein kinase C iota type, sequence (P41743 whole entry): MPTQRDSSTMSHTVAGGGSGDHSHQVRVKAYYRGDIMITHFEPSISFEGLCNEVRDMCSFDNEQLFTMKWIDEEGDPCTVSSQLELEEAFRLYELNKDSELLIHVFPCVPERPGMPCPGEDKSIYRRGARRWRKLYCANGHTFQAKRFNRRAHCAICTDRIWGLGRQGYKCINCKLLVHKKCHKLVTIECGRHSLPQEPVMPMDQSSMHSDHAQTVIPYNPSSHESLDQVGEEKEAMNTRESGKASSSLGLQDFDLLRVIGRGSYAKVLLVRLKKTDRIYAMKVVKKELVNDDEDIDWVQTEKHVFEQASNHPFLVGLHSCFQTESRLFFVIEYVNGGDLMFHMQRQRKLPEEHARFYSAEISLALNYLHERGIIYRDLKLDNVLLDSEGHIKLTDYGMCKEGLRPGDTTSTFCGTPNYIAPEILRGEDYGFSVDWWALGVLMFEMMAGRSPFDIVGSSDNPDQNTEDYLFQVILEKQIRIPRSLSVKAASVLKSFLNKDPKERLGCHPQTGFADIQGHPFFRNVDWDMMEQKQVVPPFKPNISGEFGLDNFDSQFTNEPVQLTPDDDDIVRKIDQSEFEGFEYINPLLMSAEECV

[12] = molecular target: Serine/threonine-protein kinase TAO1 (Homo sapiens, UniProt Q7L7X3); format: functional
[13] = molecular target: Glycogen synthase kinase-3 beta (Homo sapiens, UniProt P49841); format: functional;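 further: value comes from a broad kinome profiling panel, with GSK3B as the panel member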
[14] = molecular target: Proto-oncogene tyrosine-protein kinase receptor Ret (Homo sapiens, UniProt P07949); format: functional;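 further: measured within a kinome-wide profiling panel, RET as the panel member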
[15] = molecular target: Tyrosine-protein kinase FRK (Homo sapiens, UniProt P42685); format: functional;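 further: FRK tested as one member of a kinome panel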
[16] = molecular target: Ribosomal protein S6 kinase alpha-5 (Homo sapiens, UniProt O75582); format: functional
Ribosomal protein S6 kinase alpha-5, sequence (O75582 whole entry): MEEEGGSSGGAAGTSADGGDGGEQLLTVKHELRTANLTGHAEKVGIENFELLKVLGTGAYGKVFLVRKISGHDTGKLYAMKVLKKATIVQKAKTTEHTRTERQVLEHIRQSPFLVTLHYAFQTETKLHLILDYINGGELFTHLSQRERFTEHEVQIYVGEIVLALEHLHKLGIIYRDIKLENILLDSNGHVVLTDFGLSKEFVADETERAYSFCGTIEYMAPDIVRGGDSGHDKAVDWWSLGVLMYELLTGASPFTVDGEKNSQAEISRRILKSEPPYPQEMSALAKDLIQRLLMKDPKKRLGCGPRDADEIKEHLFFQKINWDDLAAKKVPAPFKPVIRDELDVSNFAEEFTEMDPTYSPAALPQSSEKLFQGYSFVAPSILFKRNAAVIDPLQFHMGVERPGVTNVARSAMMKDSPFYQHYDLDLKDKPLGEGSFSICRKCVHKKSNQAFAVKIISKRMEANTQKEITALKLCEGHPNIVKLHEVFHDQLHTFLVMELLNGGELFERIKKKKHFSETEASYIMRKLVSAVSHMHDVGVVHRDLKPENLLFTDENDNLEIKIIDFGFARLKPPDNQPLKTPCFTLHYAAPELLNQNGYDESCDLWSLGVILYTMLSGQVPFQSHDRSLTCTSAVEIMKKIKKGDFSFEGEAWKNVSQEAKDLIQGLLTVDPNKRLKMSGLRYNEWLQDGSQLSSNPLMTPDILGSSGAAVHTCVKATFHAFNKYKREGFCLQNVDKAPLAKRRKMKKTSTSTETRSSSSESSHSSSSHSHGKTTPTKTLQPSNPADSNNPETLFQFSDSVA

[17] = molecular target: Tyrosine-protein kinase receptor UFO (Homo sapiens, UniProt P30530); format: functional
Tyrosine-protein kinase receptor UFO, sequence (P30530 whole entry): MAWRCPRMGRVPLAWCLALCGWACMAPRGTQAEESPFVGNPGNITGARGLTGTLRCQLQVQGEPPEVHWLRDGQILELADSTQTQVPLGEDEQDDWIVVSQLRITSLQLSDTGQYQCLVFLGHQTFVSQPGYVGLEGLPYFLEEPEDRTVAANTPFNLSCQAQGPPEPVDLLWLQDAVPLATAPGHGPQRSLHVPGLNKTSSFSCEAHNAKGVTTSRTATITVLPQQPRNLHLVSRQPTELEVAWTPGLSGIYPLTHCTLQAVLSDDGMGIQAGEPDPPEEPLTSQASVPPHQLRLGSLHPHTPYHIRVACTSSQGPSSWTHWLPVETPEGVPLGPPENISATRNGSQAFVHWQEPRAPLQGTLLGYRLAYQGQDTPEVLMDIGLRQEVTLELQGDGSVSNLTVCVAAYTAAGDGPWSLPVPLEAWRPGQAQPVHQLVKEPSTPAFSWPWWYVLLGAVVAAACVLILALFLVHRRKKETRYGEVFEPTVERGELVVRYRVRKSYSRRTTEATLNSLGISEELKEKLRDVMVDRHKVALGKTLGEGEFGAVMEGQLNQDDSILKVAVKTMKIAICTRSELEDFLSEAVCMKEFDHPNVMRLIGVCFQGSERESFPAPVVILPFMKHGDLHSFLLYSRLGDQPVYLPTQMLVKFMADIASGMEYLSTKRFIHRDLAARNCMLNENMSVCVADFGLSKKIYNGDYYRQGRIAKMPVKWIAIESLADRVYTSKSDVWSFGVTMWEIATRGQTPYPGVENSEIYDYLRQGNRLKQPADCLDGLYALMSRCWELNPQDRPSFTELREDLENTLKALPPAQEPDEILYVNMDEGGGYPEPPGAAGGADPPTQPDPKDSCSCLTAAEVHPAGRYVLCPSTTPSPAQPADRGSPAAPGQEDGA

[18] = molecular target: Rho-associated protein kinase 2 (Homo sapiens, UniProt O75116); format: functional
[19] = molecular target: Serine/threonine-protein kinase Chk1 (Homo sapiens, UniProt O14757); format: functional;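 further: measured as one member of a kinome-wide kinase profiling panel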
[20] = molecular target: Vascular endothelial growth factor receptor 1 (Homo sapiens, UniProt P17948); format: functional;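 further: measured within a kinome-wide profiling panel, FLT1 as the panel member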
[21] = molecular target: Rho-associated protein kinase 1 (Homo sapiens, UniProt Q13464); format: functional;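 further: measured within a broad kinome-wide panel profiling many kinases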
[22] = molecular target: Cyclin-dependent kinase 2 (Homo sapiens, UniProt P24941); format: functional;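 further: CDK2 measured as one member of a broad kinome profiling panel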

SMILES: COc1cc(Br)c(C(=O)c2nccc3cc(OC)c(OC)cc23)cc1OC
IC50 [1]: > 39.8 µM (not active) | IC50 [2]: 35.6 µM (active) | IC50 (Caspase-3): 0.407 µM (active)

SMILES: Cc1c(NC(=O)C(C)OC(=O)c2ccc([N+](=O)[O-])s2)c(=O)n(-c2ccccc2)n1C (centres undefined)
AC50 (Caspase-8): 22.8 µM (active) | IC50 [3]: 10.4 µM (active)

Ki [4]: > 3.98 µM (inactive) | Ki [5]: > 10 µM (inactive) | Ki [6]: 0.158 µM (active) | Ki [7]: > 1.58 µM (inactive) | Ki [8]: > 2 µM (inactive) | Ki [9]: 1.58 µM (active) | Ki [10]: > 2 µM (inactive) | Ki [11]: 3.98 µM (active) | Ki [12]: > 7.94 µM (inactive) | Ki [13]: > 5.01 µM (inactive) | Ki [14]: > 2.51 µM (inactive) | Ki [15]: > 2.51 µM (inactive) | Ki [16]: 0.631 µM (active) | Ki [17]: > 2 µM (inactive) | Ki [18]: 0.0251 µM (active) | Ki [19]: > 7.94 µM (inactive) | Ki [20]: > 2 µM (inactive) | Ki [21]: 0.158 µM (active) | Ki [22]: 1 µM (active)
SMILES: CC(N)C1CCC(C(=O)Nc2ccnc3[nH]ccc23)CC1 (centres undefined)
